ChEMBL document CHEMBL1201862, “PubChem BioAssay data set” (2004)
Calls of active or inactive are those of the source.

Assays:
[1] = Luminescence Cell-Based Dose Confirmation HTS to Identify Activators of 5'UTR Stem-Loop Driven Alpha-Synuclein mRNA Translation in H4 Neuroglioblastoma Cells. [Related pubchem assays: 1829 (Project Summary), 1814 (Primary HTS)]; type: functional
H4 = assay: Luminescence Cell-Based Dose Response HTS to Identify Activators of 5'UTR Stem-Loop Driven Prion Protein mRNA Translation in H4 Neuroglioblastoma Cells. [Related pubchem assays: 1829 (Project Summary), 1814 (Primary HTS)]; type: functional; details: Homo sapiens
[2] = molecular target: Lysosomal acid glucosylceramidase (Homo sapiens, UniProt P04062); assay: Dose response cell-based high throughput screening assay to identify enhancers of beta-glucosidase activity. [Related pubchem assays: 784 ]; type: functional
[3] = Luminescence Cell-Based Dose Response HTS to Identify Activators of Luciferase Translation or Activity in H4 […] Cells. [Related pubchem assays: 1829 (Project Summary), 1814 (Primary HTS)]; type: functional
[4] = Luminescence Cell-Based Dose Confirmation HTS to Identify Inhibitors of Polyadenylation.; type: functional
[5] = molecular target: T1, Neuropeptide Y receptor type 1 (Homo sapiens, UniProt P25929); type: functional;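 for IC50: HEK293 cells with a CNG channel challenged with NPY then isoproterenol; potency as antagonist that reverses NPY suppression of cAMP signal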
T1 sequence (P25929 whole entry): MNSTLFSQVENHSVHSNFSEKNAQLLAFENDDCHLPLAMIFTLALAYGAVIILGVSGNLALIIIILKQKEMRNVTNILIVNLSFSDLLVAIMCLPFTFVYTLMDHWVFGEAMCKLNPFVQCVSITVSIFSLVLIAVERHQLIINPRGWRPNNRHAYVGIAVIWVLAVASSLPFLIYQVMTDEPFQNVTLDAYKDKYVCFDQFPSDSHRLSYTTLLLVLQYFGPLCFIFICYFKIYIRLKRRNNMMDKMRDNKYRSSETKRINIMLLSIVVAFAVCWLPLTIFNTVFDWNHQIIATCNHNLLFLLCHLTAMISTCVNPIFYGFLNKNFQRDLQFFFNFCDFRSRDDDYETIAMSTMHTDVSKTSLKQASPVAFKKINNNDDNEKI

[6] = molecular target: Ras and Rab interactor 1/Tyrosine-protein kinase ABL1 (Homo sapiens, UniProt P00519+Q13671); type: functional;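 note: biochemical TR-FRET dose-response test measuring inhibition of binding between Rin1 and Abl proteins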
[7] = molecular target: T2, Neuropeptide Y receptor type 2 (Homo sapiens, UniProt P49146); type: functional, cell-based;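 for IC50: HEK293 cells expressing the receptor and a CNG channel; stimulus was NPY near EC95 followed by isoproterenol to raise cAMP; antagonist potency measured as restoring cAMP signal that NPY suppresses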
T2 sequence (P49146 whole entry): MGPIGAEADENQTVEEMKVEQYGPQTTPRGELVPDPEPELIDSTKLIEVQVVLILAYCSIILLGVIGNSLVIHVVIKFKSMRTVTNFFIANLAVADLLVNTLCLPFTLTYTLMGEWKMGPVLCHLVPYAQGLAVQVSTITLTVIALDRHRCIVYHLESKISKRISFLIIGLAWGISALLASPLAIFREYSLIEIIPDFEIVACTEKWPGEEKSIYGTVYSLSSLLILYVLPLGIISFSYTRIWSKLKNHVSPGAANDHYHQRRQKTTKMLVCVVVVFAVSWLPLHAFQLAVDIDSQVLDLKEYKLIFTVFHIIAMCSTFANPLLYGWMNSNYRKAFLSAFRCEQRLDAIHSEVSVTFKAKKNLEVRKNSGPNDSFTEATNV

Insulin-degrading enzyme = molecular target: T3, Insulin-degrading enzyme (Homo sapiens, UniProt P14735); assay: Dose Response: Fluorescence polarization-based cell-based high throughput dose response assay for inhibitors of insulin-degrading enzyme (IDE). [Related pubchem assays: 434962 (Primary screen (IDE inhibitors in singlicate)), 449730 (Counterscreen (Cytotoxicity in triplicate)), 435028 (Confirmation (IDE inhibitors in triplicate)), 434984 (Summary …; type: functional
T3 sequence (P14735 whole entry): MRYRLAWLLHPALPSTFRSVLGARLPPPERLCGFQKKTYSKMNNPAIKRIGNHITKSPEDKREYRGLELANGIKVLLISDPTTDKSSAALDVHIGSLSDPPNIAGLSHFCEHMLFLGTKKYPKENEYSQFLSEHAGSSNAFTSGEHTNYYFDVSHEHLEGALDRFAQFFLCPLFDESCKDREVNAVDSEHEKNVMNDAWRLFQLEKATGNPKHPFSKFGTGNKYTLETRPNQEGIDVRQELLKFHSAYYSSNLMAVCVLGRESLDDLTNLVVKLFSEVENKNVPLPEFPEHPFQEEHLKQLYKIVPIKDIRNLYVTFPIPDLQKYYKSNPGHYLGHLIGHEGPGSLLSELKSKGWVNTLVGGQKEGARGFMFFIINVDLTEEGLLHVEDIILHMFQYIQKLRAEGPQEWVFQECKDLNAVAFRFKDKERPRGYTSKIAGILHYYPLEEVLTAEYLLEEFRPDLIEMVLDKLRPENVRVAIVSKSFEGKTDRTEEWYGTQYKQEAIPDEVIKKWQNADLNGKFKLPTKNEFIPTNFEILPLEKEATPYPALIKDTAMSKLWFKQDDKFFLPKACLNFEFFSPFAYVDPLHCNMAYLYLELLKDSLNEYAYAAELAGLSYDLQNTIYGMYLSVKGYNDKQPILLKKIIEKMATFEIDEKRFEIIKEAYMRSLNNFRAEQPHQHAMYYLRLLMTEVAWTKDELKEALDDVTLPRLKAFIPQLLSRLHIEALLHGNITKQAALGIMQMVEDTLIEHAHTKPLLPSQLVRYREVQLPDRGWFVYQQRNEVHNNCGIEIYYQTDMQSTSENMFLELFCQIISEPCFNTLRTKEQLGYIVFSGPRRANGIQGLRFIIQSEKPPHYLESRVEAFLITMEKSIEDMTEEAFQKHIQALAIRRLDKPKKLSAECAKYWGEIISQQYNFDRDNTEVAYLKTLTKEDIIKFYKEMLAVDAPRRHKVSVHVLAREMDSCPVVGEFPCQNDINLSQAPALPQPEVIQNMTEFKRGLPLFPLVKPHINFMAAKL

[8] = Counterscreen for IDE inhibitors: Luminescence-based cell-based high throughput dose response assay to identify compounds that are cytotoxic to HEK cells. [Related pubchem assays: 434962 (Primary screen (IDE inhibitors in singlicate)), 449730 (Counterscreen (Cytotoxicity in triplicate)), 435028 (Confirmation (IDE inhibitors in triplicate)) …; type: functional; details: HEK293
Cytochrome P450 2D6 = Cytochrome P450 2D6 (Homo sapiens, UniProt P10635); assay: qHTS Assay for Inhibitors and Substrates of Cytochrome P450 2D6. [Related pubchem assays: 410 ]; type: ADME; details: read-out: Potency
HEK293 = assay: Fluorescence-based counterscreen for potentiators or agonists of NPY-Y1: cell-based high-throughput dose response assay for inhibitors of cyclic nucleotide gated ion channel (CNGC) activity. In this assay, the parental HEK293 cell line transfected with a cyclic-nucleotide gated ion channel (CNGC)-based cAMP sensor is used to measure inhibition of isoproterenol-induced CNGC …; type: functional; details: Homo sapiens
[9] = molecular target: T2, Neuropeptide Y receptor type 2; assay: Fluorescence-based counterscreen for agonists of NPY-Y1: cell-based high-throughput dose response assay for agonists of NPY-Y2.; type: functional
[10] = molecular target: T1, Neuropeptide Y receptor type 1; assay: Fluorescence-based dose response cell-based high-throughput screening assay for agonists of NPY-Y1. [Related pubchem assays: 1697 (Screening assay (NPY-Y1 agonists).), 1359 (Screening assay (NPY-Y2 potentiators or agonists).), 1304 (Screening assay (NPY-Y1 potentiators or agonists).), 1704 (Screening assay (CNGC inhibitors).), 1791 (Summary AID.)]; type: functional

Chain of Cytochrome P450 2D6 (P10635 whole entry): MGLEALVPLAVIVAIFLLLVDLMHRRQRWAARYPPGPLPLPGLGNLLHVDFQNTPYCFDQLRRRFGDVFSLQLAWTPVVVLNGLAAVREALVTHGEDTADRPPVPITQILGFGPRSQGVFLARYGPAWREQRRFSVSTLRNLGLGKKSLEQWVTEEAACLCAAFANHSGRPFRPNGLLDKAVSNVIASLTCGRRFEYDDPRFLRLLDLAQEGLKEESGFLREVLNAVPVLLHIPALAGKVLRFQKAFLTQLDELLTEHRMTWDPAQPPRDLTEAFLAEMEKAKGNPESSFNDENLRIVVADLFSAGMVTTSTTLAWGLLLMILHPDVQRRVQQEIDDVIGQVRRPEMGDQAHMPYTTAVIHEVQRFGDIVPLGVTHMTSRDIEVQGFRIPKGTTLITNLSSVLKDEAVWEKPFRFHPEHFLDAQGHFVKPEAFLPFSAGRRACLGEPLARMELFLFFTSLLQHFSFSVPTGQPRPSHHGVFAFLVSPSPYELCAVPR
Chain of Ras and Rab interactor 1/Tyrosine-protein kinase ABL1 (P00519 whole entry): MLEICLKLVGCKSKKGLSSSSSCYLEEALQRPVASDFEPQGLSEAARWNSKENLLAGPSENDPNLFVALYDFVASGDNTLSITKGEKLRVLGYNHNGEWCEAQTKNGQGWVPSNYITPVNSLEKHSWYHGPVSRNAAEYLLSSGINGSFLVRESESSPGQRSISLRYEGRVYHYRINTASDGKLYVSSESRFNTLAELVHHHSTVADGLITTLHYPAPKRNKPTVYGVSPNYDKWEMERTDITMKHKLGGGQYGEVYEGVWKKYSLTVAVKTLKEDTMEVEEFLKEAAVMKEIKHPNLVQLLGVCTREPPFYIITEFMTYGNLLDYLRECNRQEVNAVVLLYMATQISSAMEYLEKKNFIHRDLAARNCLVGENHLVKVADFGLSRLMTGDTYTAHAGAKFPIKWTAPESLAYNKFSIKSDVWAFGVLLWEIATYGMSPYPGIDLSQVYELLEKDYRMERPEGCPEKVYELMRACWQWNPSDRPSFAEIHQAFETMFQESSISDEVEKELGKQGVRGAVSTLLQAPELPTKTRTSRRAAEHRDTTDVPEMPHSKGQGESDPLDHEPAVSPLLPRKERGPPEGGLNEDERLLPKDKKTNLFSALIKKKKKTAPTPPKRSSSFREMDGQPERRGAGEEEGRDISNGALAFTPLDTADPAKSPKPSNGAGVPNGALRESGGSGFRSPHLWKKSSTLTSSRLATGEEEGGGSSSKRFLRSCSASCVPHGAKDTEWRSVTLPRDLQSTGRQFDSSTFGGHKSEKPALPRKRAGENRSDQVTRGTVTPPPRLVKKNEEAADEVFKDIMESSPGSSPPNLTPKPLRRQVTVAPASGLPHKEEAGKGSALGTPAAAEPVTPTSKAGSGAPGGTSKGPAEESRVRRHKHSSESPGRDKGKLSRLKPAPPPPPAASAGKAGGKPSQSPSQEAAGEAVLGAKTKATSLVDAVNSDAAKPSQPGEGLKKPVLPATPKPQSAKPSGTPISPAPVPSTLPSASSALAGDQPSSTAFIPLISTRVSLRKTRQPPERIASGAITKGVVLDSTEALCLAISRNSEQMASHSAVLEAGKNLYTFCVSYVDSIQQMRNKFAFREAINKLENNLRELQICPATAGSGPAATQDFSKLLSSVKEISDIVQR
Chain of Ras and Rab interactor 1/Tyrosine-protein kinase ABL1 (Q13671 whole entry): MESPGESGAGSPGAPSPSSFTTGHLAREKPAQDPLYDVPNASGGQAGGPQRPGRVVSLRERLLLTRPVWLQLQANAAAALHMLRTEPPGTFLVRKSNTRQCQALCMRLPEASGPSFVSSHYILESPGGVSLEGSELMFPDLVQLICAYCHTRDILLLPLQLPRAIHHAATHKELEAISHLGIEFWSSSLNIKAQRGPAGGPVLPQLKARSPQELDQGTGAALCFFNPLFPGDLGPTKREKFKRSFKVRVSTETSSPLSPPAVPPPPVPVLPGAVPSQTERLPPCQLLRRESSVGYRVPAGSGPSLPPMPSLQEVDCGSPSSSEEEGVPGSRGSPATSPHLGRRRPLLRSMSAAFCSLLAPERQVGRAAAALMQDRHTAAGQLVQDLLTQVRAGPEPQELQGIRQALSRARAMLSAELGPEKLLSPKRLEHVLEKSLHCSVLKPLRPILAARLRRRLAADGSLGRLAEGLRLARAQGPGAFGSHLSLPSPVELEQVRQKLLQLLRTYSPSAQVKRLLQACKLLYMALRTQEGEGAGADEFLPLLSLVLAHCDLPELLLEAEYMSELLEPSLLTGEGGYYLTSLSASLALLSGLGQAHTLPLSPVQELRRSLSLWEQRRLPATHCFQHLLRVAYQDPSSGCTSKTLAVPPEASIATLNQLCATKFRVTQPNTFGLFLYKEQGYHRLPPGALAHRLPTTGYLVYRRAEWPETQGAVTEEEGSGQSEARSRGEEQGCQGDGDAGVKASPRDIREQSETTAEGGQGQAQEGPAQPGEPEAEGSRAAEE
Chain of Lysosomal acid glucosylceramidase (P04062 whole entry): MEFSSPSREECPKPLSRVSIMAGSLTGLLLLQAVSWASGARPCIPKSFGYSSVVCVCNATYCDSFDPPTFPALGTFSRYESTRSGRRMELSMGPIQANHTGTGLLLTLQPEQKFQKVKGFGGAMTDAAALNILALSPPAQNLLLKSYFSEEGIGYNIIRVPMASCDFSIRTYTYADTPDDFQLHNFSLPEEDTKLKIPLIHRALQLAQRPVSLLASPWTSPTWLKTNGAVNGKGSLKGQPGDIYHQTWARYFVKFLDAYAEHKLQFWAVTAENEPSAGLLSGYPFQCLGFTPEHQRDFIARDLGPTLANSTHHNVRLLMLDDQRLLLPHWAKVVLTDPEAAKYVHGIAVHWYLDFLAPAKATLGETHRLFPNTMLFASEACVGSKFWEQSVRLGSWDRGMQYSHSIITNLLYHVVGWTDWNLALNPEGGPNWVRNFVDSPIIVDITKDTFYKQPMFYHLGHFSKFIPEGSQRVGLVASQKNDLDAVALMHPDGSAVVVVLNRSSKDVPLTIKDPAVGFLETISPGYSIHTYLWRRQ

With `COC(=O)c1sc(NC(=O)c2csc3c2CCCC3)nc1C` the EC50 [1] was 0.155 µM (active), the EC50 (H4) was 1.8 µM (active) and the EC50 [2] was > 50 µM (not active). The EC50 [3] was 0.575 µM (active).

For `CCCOP(=O)(c1ccc(N(C)C)cc1)C(Nc1ccccc1)c1ccc(C)cc1` (centres undefined), the EC50 [4] was > 120 µM (not active).

For `CCOC(=O)CCCCC(=O)c1[nH]c(O)nc1CSc1nnc2c3ccccc3n(C(C)C)c2n1`, the IC50 [5] was 7.63 µM (active), the IC50 [6] was 3.46 µM (active) and the IC50 [7] was 2.95 µM (active).

With `CN(C)c1ccc(/C=C2\SC(N3CCCCC3)=NC2=O)cc1` the IC50 (Insulin-degrading enzyme) was 17.9 µM (not active) and the IC50 [8] was 23 µM (not active).

For `COc1ccc2c(c1O)-c1c(OC)c(OC)cc3c1[C@@H](C2)N(C)CC3`, the AC50 (Cytochrome P450 2D6) was 15.8 µM (inconclusive).

With `CC1CC(C)CN(CCCNC(=O)c2cc3c(O)nc4ccccc4c3n2C)C1` (centres undefined) the IC50 (HEK293) was 19.8 µM (not active), the EC50 [9] was > 35.4 µM (not active) and the EC50 [10] was > 35.4 µM (not active).
